Test results reported in US12398097B2, “WDR5-MYC inhibitors” (Vanderbilt University, priority 2019, dated 2025).

Target: WDR5 (Homo sapiens, UniProt P61964)
Assay: Competition-based fluorescence polarization anisotropy assay
Conditions: binding to WDR5; displacement of FITC-labeled small molecule probe (analogous to Example J2 or HCH-25) or peptide probe FITC-AHx-SEEEIDVVSV; pH 6.0; Ki converted from IC50
Procedure, shortened: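 Competition fluorescence polarization anisotropy binding to WDR5 using a FITC-labeled peptide probe or a fluorescently labeled small-molecule probe. Buffer: 200 mM phosphate, 300 mM NaCl, 0.5 mM TCEP, 0.1% Chaps, pH 6.0. Displacement data were converted to Ki.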

Row | Ki [nM] | SMILES
1 | 150 | CS(=O)(=O)c1cc(NS(=O)(=O)c2cc(Br)cc(Cl)c2O)cc(C2(C#N)CCC2)c1 [Example S72, 5-Bromo-3-chloro-N-(3-(1-cyanocyclobutyl)-5-(methylsulfonyl)phenyl)-2-hydroxybenzenesulfonamide]
2 | 1030 | CS(=O)(=O)c1cc(NS(=O)(=O)c2cc(Br)ccc2O)cc(C2(C#N)CCC2)c1 [Example S73, 5-bromo-N-(3-(1-cyanocyclobutyl)-5-(methylsulfonyl)phenyl)-2-hydroxybenzenesulfonamide]
3 | 650 | O=C(O)CNC(=O)c1cc(OC(F)(F)F)cc(NS(=O)(=O)c2cc(Br)ccc2O)c1O [HCH-1, (3-((5-Bromo-2-hydroxyphenyl)sulfonamido)-2-hydroxy-5-(trifluoromethoxy)benzoyl)glycine]
4 | 36100 | O=S(=O)(Nc1cc(Cl)ccc1O)c1cccc(Br)c1 [HCH-1-9-4re, 3-Bromo-N-(5-chloro-2-hydroxyphenyl)benzenesulfonamide]
5 | 1250 | O=S(=O)(Nc1cc(Cl)ccc1O)c1cc(Br)ccc1O [HCH-1-143-2, 5-Bromo-N-(5-chloro-2-hydroxyphenyl)-2-hydroxybenzenesulfonamide]
6 | 600 | CCc1cc(Br)cc(S(=O)(=O)Nc2cc(Cl)cc(C(=O)NCC3(O)CCN(C)CC3)c2O)c1O [HCH-2, 3-((5-Bromo-3-ethyl-2-hydroxyphenyl)sulfonamido)-5-chloro-2-hydroxy-N-((4-hydroxy-1-methylpiperidin-4-yl)methyl)benzamide]
7 | 550 | O=S(=O)(Nc1cc(OC(F)(F)F)ccc1O)c1cc(Br)ccc1O [HCH-3-48-1, 5-Bromo-2-hydroxy-N-(2-hydroxy-5-(trifluoromethoxy)phenyl)benzenesulfonamide]
8 | 580 | NC(=O)c1cc(OC(F)(F)F)cc(NS(=O)(=O)c2cc(Br)cc(CCCO)c2O)c1O [HCH-4, 3-((5-Bromo-2-hydroxy-3-(3-hydroxypropyl)phenyl)sulfonamido)-2-hydroxy-5-(trifluoromethoxy)benzamide]
9 | 380 | O=C(NC1COC1)c1cc(OC(F)(F)F)cc(NS(=O)(=O)c2cc(Br)ccc2O)c1O [HCH-9, 3-((5-Bromo-2-hydroxyphenyl)sulfonamido)-2-hydroxy-N-(oxetan-3-yl)-5-(trifluoromethoxy)benzamide]
10 | 460 | CCc1cc(Br)cc(S(=O)(=O)Nc2cc(Cl)cc(C(=O)O)c2O)c1O [HCH-11, 3-((5-Bromo-3-ethyl-2-hydroxyphenyl)sulfonamido)-5-chloro-2-hydroxybenzoic acid]
11 | 200 | CCc1cc(NS(=O)(=O)c2cc(Br)cc(CC)c2O)c(O)c(C(=O)O)c1 [HCH-12, 3-((5-bromo-3-ethyl-2-hydroxyphenyl)sulfonamido)-5-ethyl-2-hydroxybenzoic acid]
12 | 220 | CCc1cc(NS(=O)(=O)c2cc(Br)cc(OC(F)(F)F)c2O)c(O)c(C(=O)O)c1 [HCH-13, 3-((5-Bromo-2-hydroxy-3-(trifluoromethoxy)phenyl)sulfonamido)-5-ethyl-2-hydroxybenzoic acid]
13 | 130 | CCc1cc(Br)cc(S(=O)(=O)Nc2cc(OC(F)(F)F)cc(C(=O)O)c2O)c1O [HCH-14, 3-((5-Bromo-3-ethyl-2-hydroxyphenyl)sulfonamido)-2-hydroxy-5-(trifluoromethoxy)benzoic acid]
14 | 170 | O=C(O)c1cc(OC(F)(F)F)cc(NS(=O)(=O)c2cc(Br)cc(OC(F)(F)F)c2O)c1O [HCH-15, 3-((5-Bromo-2-hydroxy-3-(trifluoromethoxy)phenyl)sulfonamido)-2-hydroxy-5-(trifluoromethoxy)benzoic acid]
15 | 110 | CCCc1cc(Br)cc(S(=O)(=O)Nc2cc(OC(F)(F)F)cc(C(=O)O)c2O)c1O [HCH-16, 3-((5-Bromo-2-hydroxy-3-propylphenyl)sulfonamido)-2-hydroxy-5-(trifluoromethoxy)benzoic acid]
16 | 320 | CCCc1cc(Br)cc(S(=O)(=O)Nc2cc(Cl)cc(C(=O)O)c2O)c1O [HCH-17, 3-((5-Bromo-2-hydroxy-3-propylphenyl)sulfonamido)-5-chloro-2-hydroxybenzoic acid]
